Measured values: patent US20120264817A1, “SOLUBILIZED FORMULATION OF DOCETAXEL WITHOUT TWEEN 80” (priority 2007, published 2012)

How the values were obtained:
[1] = solubility studies with docetaxel in solvents/excipients; details: glycofurol, organic solvent or mixture
Text: In some instances a solubilizer can provide sufficient degree of dissolution that a separate hydrotrope or other solubilization aid is not needed, but this is generally not the case (i.e. a separate hydrotrope is usually desirable). […] The concentration of drug in solubilizer varies depending on the lipophilicity of drug. […] We have conducted the solubility studies in these excipients to understand how different excipients containing different functional groups are contributing to the solubility of docetaxel. A solubilizer can also act as a hydrotrope (on dilution with infusion fluid) if it is used in the sufficiently large quantities. […] In the table below and the rest of this specification, the terms “solubilizer” and “hydrotrope” will be used with reference to concentrates (both initial and intermediate) unless specifically indicated otherwise or the context so requires.

[2] = docetaxel as marketed by Sanofi-Aventis; cited from earlier work
[3] = physical stability (onset of precipitation) of initial and final dilutions of docetaxel formulations; type: physicochemical
Procedure: Observations: • 1. The concentrate turns waxy and viscous when stored at temperature below the room temperature, i.e., 22° C. To disperse this viscous mass, a large amount of WFI is needed to make the system suitable for subsequent dilution. So the first step of making a 10 mg/ml solution cannot be achieved with this liquid concentrate. • 2. To achieve a primary dilution of docetaxel of 10 mg/ml, the above concentrate was heated in a water bath to form a viscous liquid, and then diluted with 8 ml of water for injection. The primary dilution is stable for a period of not less than 8 hours, which was a stability condition stipulated in the innovators product. This solution, when further diluted with NS, achieves the targeted concentration range of 0.3-0.74 mg/ml of docetaxel in the final solution for administration. This solution is stable for a period of 24 hours as opposed to the stability of 4 hours with innovators product. In this example, we have achieved the target concentration of docetaxel for administration without the presence of polysorbate 80. • 3.
The concentrate is liquid at room temperature and turned waxy only when stored at 5° C. or below, but turned back to free flowing liquid in 5 minutes when kept at room temperature. • 2. During the initial dilution step to get 10 mg/ml, the contents of the vial turned into a thixotropic liquid within the vial. […]

solubility [1]: ~200 mg/mL
behaviour on dilution to administration concentrations ([3]; about 10 mg/ml solution in glycofurol, diluted with IV fluids): will not precipitate out
behaviour on dilution to administration concentrations ([3]; about 200 mg/ml liquid concentrate in glycofurol, diluted with water): precipitates out
SMILES: CC(=O)O[C@@]12CO[C@@H]1C[C@H](O)[C@@]1(C)C(=O)[C@H](O)C3=C(C)[C@@H](OC(=O)[C@H](O)[C@@H](NC(=O)OC(C)(C)C)c4ccccc4)C[C@@](O)([C@@H](OC(=O)c4ccccc4)[C@H]21)C3(C)C [docetaxel, (2R,3S)—N-carboxy-3-phenylisoserine, N-tert-butyl ester, 13-ester with 5beta-20-epoxy-1,2α,4,7β,10β,13α-hexahyciroxytax-11-en-9-one 4-acetate 2-benzoate, trihydrate]
lipophilicity [2]: highly lipophilic
solubility in water [2]: practically insoluble in water
